Assay results published in patent publication EP1891948A1, “Treatment of neurological and neuropsychological disorders” (Probiodrug AG, priority 2000, dated 2002).

Legend:
WistarF/Han (WF) rats [1] = assay: Elevated plus maze (EPM) test after i.c.v. treatment; assay type: in vivo; conditions: low dose (50pmol), Fig. 6
Method: Animals. Male WistarF/Han (WF) rats (Central Animal Laboratory, Hannover Medical School, Hannover, Germany, see http://www.mh-hannover.de/institut/tierlabor/wf.htm for details), weighing 350-390g, were housed in a sound-proof, temperature controlled (24.0±0.5°C) room under specific pathogen free conditions with a 12/12h dark/light cycle (lights on at 07.00 with illumination level of 80 Lux). Food (Altromin lab chow pellets) and tap water were available ad libitum. Under ketamine/xylasine (100/5 mg/kg, i.p.) anesthesia, the rats were fixed in a Kopf stereotaxic frame and implanted with cannulae (Plastic One, Inc., Roanoke, VA, USA) above the lateral ventricle. All research and animal care procedures were approved by the Lower Saxony district government (Hannover, Germany) and followed principles described in the European Community's Council Directive of 24 November 1986 (86/609/EEC). […]
Elevated plus maze (EPM) testing. […] The following parameters were calculated: Total numbers of arm entries (TA); entries to closed arms (CA); entries to open arms (OA); percentage frequency of entries to open arms (%OA: OAx100/TA); total trial duration (TT): 300s; duration of stay in closed arms (closed time; CLT); percentage share of CLT in total arms-stay duration (CLTx100/AT); duration of stay in open arms (open time; OT) and percentage share of OT in total arm-stay duration (%OT: OTx100/AT). […]

WistarF/Han (WF) rats [2] = assay: 1h and 12h food intake after combined i.c.v. treatment (Example 3); assay type: in vivo; conditions: Fig. 8
Method: Animals. Male WistarF/Han (WF) rats (Central Animal Laboratory, Hannover Medical School, Hannover, Germany, see http://www.mh-hannover.de/institut/tierlabor/wf.htm for details), weighing 330-370g, were housed in a sound-proof, temperature controlled (24.0±0.5°C) room under specific pathogen free conditions with a 12/12h dark/light cycle (lights on at 07.00 with illumination level of 80 Lux). Food (Altromin lab chow pellets) and tap water were available ad libitum. Under ketamine/xylasine (100/5 mg/kg, i.p.) anesthesia, the rats were fixed in a Kopf stereotaxic frame and implanted with cannulae (Plastic One, Inc., Roanoke, VA, USA) above the lateral ventricle. All research and animal care procedures were approved by the Lower Saxony district government (Hannover, Germany) and followed principles described in the European Community's Council Directive of 24 November 1986 (86/609/EEC).
Surgery and i.c.v. application. For surgery, rats were anesthetized and prepared with i.c.v. cannulae (coordinates: A:-0.7mm caudal, L:1.4mm lateral to bregma; and V3.2mm ventral to the skull surface; tooth bar +3.0 above ear bars) using standard stereotaxic procedures as described in detail elsewhere (von Hörsten et al., 1998a,b,c). After a 7-day recovery period, successful ventricle cannulation was confirmed by an angiotensin drinking response (von Hörsten et al., 1998a). Rats showing a positive drinking response (n=59) were then habituated to experimental handling by daily sham injections for seven days.
Animals were randomly divided into two sets of four experimental groups (n=5-6/group), which completed different consecutive SI test of anxiety. […] The time spent in active social interaction (SI-time), 1h and 12h food-intake were measured. […]
Statistical analysis. Data from repeated observations (food intake) were analyzed by two-way analyses of variance for repeated measures (ANOVA) (factors: "substrain" and "food intake" as repeated measure). Data obtained from simple measures such as DP IV activity or SI time were analyzed by one-way (factor: "substrain") ANOVA. […]

Compound: CCC(C)C(N)C(=O)N1CCSC1 (stereo not drawn) [isoleucyl thiazolidine]
- percentage of time spent on the open arms of the maze (WistarF/Han (WF) rats [1]): increased
- dose at which the 1h feeding effect reaches significance (WistarF/Han (WF) rats [2]): 0.05 nmol
- amount of food eaten within 1h (WistarF/Han (WF) rats [2]; single agents or combination, isoleucyl thiazolidine 5pmol-500nmol, NPY 50pmol-1.6nmol): mild feeding effect
